Measurements reported in PMC9780942, “Antimicrobial Activity and Immunomodulatory Properties of Acidocin A, the Pediocin-like Bacteriocin with the Non-Canonical Structure” (Membranes, 2022).
Positions of bridges follow the written chain, without caps; N, C: chain ends. No end group written: not given here.

Tests used:
L. monocytogenes EGD = assay type: cell-based, Listeria monocytogenes; conditions: 24 h
Protocol: (§1) Antibacterial activity of recombinant bacteriocins against a number of Gram-positive and Gram-negative bacteria (Table S2) was determined by the method of two-fold serial dilutions in a liquid medium. Two-fold serial dilutions of bacteriocins were prepared in sterile 96-well flat-bottom polystyrene microplates (Eppendorf, Hamburg, Germany) (Cat. No. 0030730.011) in a volume of 50 µL of sterile 0.1% bovine serum albumin (BSA) (SERVA Electrophoresis GmbH, Heidelberg, Germany) to prevent non-specific sorption of peptides to the surface of the plate wells [23]. Mid-log phase bacterial cultures were diluted with the 2x Mueller-Hinton broth (MHB) (Sigma-Aldrich, St. Louis, MO, USA) to a final cell concentration of 10^6 colony forming units (CFU) per mL. To determine the activity of bacteriocins against Listeria and Enterococci, 3% tryptic soy broth (TSB) (Merck-Millipore, Burlington, MA, USA) was used instead of MHB. Aliquots of 50 μL of diluted bacterial suspensions were added to each well of the plate, which was then incubated at 37 °C and 950 rpm for 24 h using thermostatable plate shaker PST-60HL-4 (Biosan, Riga, Latvia). As a negative control, 50 µL of the sterile growth medium (2xMHB or 6% TSB) was added to the wells containing 50 µL of 0.1% BSA. The values of the minimum inhibitory concentrations (MIC) were determined as the minimum concentration of the peptide, at which there was no visible growth of bacterial culture. Incubation for 2 h with 20 µg/mL chromogenic substrate resazurin (Sigma-Aldrich, St. Louis, MO, USA) was used to detect viable bacterial cells if they were difficult to visually detect. To study the effect of inorganic salts on the antimicrobial activity of bacteriocins, antibacterial activity assay was carried out in MHB medium supplemented with 0.9% NaCl.

L. lactis MK43 = test: Antibacterial activity assay (MIC), two-fold serial dilutions in liquid medium; assay type: cell-based; conditions: for Minimum inhibitory concentration in the presence of NaCl: MHB supplemented with 0.9% NaCl; for Minimum Inhibitory Concentration: MHB, 0.1% BSA, 37 °C, 24 h, no visible growth
Protocol: as §1

A. baumannii XDR CI 2675 = assay type: cell-based; conditions: XDR CI 2675, 24 h
Protocol: as §1

B. licheniformis B-511 = assay type: cell-based; conditions: 24 h
Protocol: as §1

B. subtilis B-886 = assay type: cell-based; conditions: B-886, 24 h
Protocol: as §1

E. coli ATCC 25922 = assay type: cell-based; conditions: ATCC 25922, 24 h
Protocol: as §1

E. coli ML-35p = assay type: cell-based; conditions: 24 h
Protocol: as §1

E. coli SQ110 = assay type: cell-based; conditions: SQ110, 24 h
Protocol: as §1

E. coli XDR CI 1057 = assay type: cell-based; conditions: XDR CI 1057, 24 h
Protocol: as §1

L. lactis MK66 = assay type: cell-based; conditions: MK66, 24 h
Protocol: as §1

M. luteus Ac-2229 = assay type: cell-based; conditions: Ac-2229, 24 h
Protocol: as §1

M. phlei Ac-1221 = assay type: cell-based; conditions: 24 h
Protocol: as §1

[1] = system: P. aeruginosa MDR CI 1995; assay type: cell-based; conditions: MDR CI 1995, 24 h
Protocol: as §1

S. aureus 209P = assay type: cell-based; conditions: 24 h
Protocol: as §1

tested bacterial strains = test: Antibacterial activity assay (MIC), average change over the tested strains; assay type: cell-based
Protocol: as §1, with “As a negative control, 50 µL of the sterile growth medium (2xMHB or 6% TSB) was added to the wells containing 50 µL of 0.1% BSA.” left out, “Incubation for 2 h with 20 µg/mL chromogenic substrate resazurin (Sigma-Aldrich, St. Louis, MO, USA) was used to detect viable bacterial cells if they were difficult to visually detect. To study the effect of inorganic salts on the antimicrobial activity of bacteriocins, antibacterial activity assay was carried out in MHB medium supplemented with 0.9% NaCl.” left out

[2] = system: E. coli ML-35p outer membrane; test: Outer membrane permeability assay with nitrocefin; assay type: cell-based; conditions: PBS pH 7.4 with NaCl, 35 °C, absorbance 492 nm, three independent experiments
Protocol: (§2) The ability of the peptides to disrupt the integrity of bacterial membranes was assessed using chromogenic substrates that are unable to enter the intact cell. For these assays, E. coli strain ML-35p was chosen that constitutively expresses β-lactamase (secreted into the periplasmic space), β-galactosidase (that is active in cytoplasm), and lacks lactose permease. Nitrocefin, which is a substrate for lactamase, served as an indicator of increased outer membrane permeability. o-Nitrophenyl-β-D-galactopyranoside (ONPG), a substrate for […], was used to assess the integrity of the cytoplasmic membrane. The bacterial cultures were grown to stationary phase in 3% TSB medium at 37 °C overnight. The cells were washed three times with cold 10 mM phosphate-buffered saline (PBS), pH 7.4 ([…], 2.7 mM KCl, 10 mM Na2HPO4, 1.76 mM KH2PO4), and diluted to the concentration of 3.3 × 10^7 CFU/mL with 10 mM PBS (pH 7.4), containing increased concentration of NaCl (1.2%, or 205 mM) and dissolved nitrocefin (Merck-Millipore, Burlington, MA, USA) or ONPG (AppliChem GmbH, Darmstadt, Germany). […] The plate was incubated at 35 °C, 500 rpm, and the absorbance of the hydrolysis products of ONPG or nitrocefin was measured spectrophotometrically at regular intervals at 405 nm or 492 nm, respectively, using AF2200 microplate reader (Eppendorf, Hamburg, Germany). […]

[3] = system: E. coli ML-35p cytoplasmic membrane; test: Cytoplasmic membrane permeability assay with ONPG; assay type: cell-based; conditions: PBS pH 7.4 with NaCl, 35 °C, absorbance 405 nm, three independent experiments
Protocol: as §2

In the case of “KTYYGNGVHCTKKSLWGKVRLKNVIPGTLSRKQSLPIKQDLKILLGWATGAFGKTFH [AcdA(dT,C31S)]”, the “Minimum Inhibitory Concentration” value (L. monocytogenes EGD) is reported as over 32 µM, the “Minimum inhibitory concentration in the presence of NaCl” value (L. lactis MK43) is reported as over 32 µM and the “Minimum Inhibitory Concentration” value (L. lactis MK43) is reported as 2 µM. For the same sequence, the “Minimum Inhibitory Concentration” value (A. baumannii XDR CI 2675) was 16 µM, the “Minimum Inhibitory Concentration” value (B. licheniformis B-511) was 4 µM and the “Minimum inhibitory concentration in the presence of NaCl” value (B. licheniformis B-511) was over 32 µM. For the same sequence, the “Minimum Inhibitory Concentration” value (B. subtilis B-886) was 4 µM, the “Minimum inhibitory concentration in the presence of NaCl” value (B. subtilis B-886) was over 32 µM and the “Minimum Inhibitory Concentration” value (E. coli ATCC 25922) was 8 µM. The “Minimum Inhibitory Concentration” value (E. coli ML-35p) was 8 µM, the “Minimum inhibitory concentration in the presence of NaCl” value (E. coli ML-35p) was 32 µM and the “Minimum Inhibitory Concentration” value (E. coli SQ110) was 8 µM. For the same sequence, the “Minimum inhibitory concentration in the presence of NaCl” value (E. coli SQ110) was 16 µM, the “Minimum Inhibitory Concentration” value (E. coli XDR CI 1057) was 16 µM and the “Minimum Inhibitory Concentration” value (L. lactis MK66) was 1 µM. The “Minimum inhibitory concentration in the presence of NaCl” value (L. lactis MK66) was over 32 µM, the “Minimum Inhibitory Concentration” value (M. luteus Ac-2229) was 16 µM and the “Minimum Inhibitory Concentration” value (M. phlei Ac-1221) was 4 µM. For the same sequence, the “Minimum Inhibitory Concentration” value [1] was over 32 µM, the “Minimum Inhibitory Concentration” value (S. aureus 209P) was 32 µM and the “Increase of MIC values on average compared to AcdA(dT) and acidocin A” value (tested bacterial strains) was 2–4 fold.

“KTYYGNGVHSTKKSLWGKVRLKNVIPGTLCRKQSLPIKQDLKILLGWATGAFGKTFH [AcdA(dT,C11S)]” was tested, and the “Minimum Inhibitory Concentration” value (L. monocytogenes EGD) was over 32 µM, the “Minimum inhibitory concentration in the presence of NaCl” value (L. lactis MK43) was over 32 µM and the “Minimum Inhibitory Concentration” value (L. lactis MK43) was 4 µM. For the same sequence, the “Minimum Inhibitory Concentration” value (A. baumannii XDR CI 2675) was 8 µM, the “Minimum Inhibitory Concentration” value (B. licheniformis B-511) was 4 µM and the “Minimum inhibitory concentration in the presence of NaCl” value (B. licheniformis B-511) was over 32 µM. The “Minimum Inhibitory Concentration” value (B. subtilis B-886) was 4 µM, the “Minimum inhibitory concentration in the presence of NaCl” value (B. subtilis B-886) was over 32 µM and the “Minimum Inhibitory Concentration” value (E. coli ATCC 25922) was 8 µM. The “Minimum Inhibitory Concentration” value (E. coli ML-35p) was 4 µM, the “Minimum inhibitory concentration in the presence of NaCl” value (E. coli ML-35p) was 32 µM and the “Minimum Inhibitory Concentration” value (E. coli SQ110) was 4 µM. For the same sequence, the “Minimum inhibitory concentration in the presence of NaCl” value (E. coli SQ110) was 16 µM, the “Minimum Inhibitory Concentration” value (E. coli XDR CI 1057) was 16 µM and the “Minimum Inhibitory Concentration” value (L. lactis MK66) was 1 µM. For the same sequence, the “Minimum inhibitory concentration in the presence of NaCl” value (L. lactis MK66) was over 32 µM, the “Minimum Inhibitory Concentration” value (M. luteus Ac-2229) was 16 µM and the “Minimum Inhibitory Concentration” value (M. phlei Ac-1221) was 4 µM. The “Minimum Inhibitory Concentration” value [1] was over 32 µM, the “Minimum Inhibitory Concentration” value (S. aureus 209P) was 32 µM and the “Increase of MIC values on average compared to AcdA(dT) and acidocin A” value (tested bacterial strains) was 2–4 fold.

In the case of “KTYYGTNGVHCTKKSLWGKVRLKNVIPGTLCRKQSLPIKQDLKILLGWATGAFGKTFH (cysteines drawn unpaired) [AcdA (DTT reduced)]”, the “Minimum Inhibitory Concentration” value (L. monocytogenes EGD) is reported as over 32 µM, the “Minimum Inhibitory Concentration” value (L. lactis MK43) is reported as 2 µM and the “Minimum Inhibitory Concentration” value (A. baumannii XDR CI 2675) is reported as 8 µM. The “Minimum Inhibitory Concentration” value (B. licheniformis B-511) was 4 µM, the “Minimum Inhibitory Concentration” value (B. subtilis B-886) was 4 µM and the “Minimum Inhibitory Concentration” value (E. coli ATCC 25922) was 8 µM. For the same sequence, the “Minimum Inhibitory Concentration” value (E. coli ML-35p) was 4 µM, the “Minimum Inhibitory Concentration” value (E. coli SQ110) was 4 µM and the “Minimum Inhibitory Concentration” value (E. coli XDR CI 1057) was 16 µM. The “Minimum Inhibitory Concentration” value (L. lactis MK66) was 1 µM, the “Minimum Inhibitory Concentration” value (M. luteus Ac-2229) was 16 µM and the “Minimum Inhibitory Concentration” value (M. phlei Ac-1221) was 4 µM. The “Minimum Inhibitory Concentration” value [1] was over 32 µM and the “Minimum Inhibitory Concentration” value (S. aureus 209P) was 16 µM.

“KTYYGTNGVHCTKNSLWGKVRLKNVKYDQNTTYIGRLQDILLGWATGAFGKTFH [OR-7(VI)]” was tested, and the “Minimum Inhibitory Concentration” value (L. monocytogenes EGD) was over 64 µM, the “Minimum Inhibitory Concentration” value (L. lactis MK43) was over 32 µM and the “Minimum Inhibitory Concentration” value (A. baumannii XDR CI 2675) was over 32 µM. For the same sequence, the “Minimum Inhibitory Concentration” value (B. licheniformis B-511) was 8 µM, the “Minimum inhibitory concentration in the presence of NaCl” value (B. licheniformis B-511) was over 32 µM and the “Minimum Inhibitory Concentration” value (B. subtilis B-886) was 16 µM. For the same sequence, the “Minimum inhibitory concentration in the presence of NaCl” value (B. subtilis B-886) was over 32 µM, the “Minimum Inhibitory Concentration” value (E. coli ATCC 25922) was over 32 µM and the “Minimum Inhibitory Concentration” value (E. coli ML-35p) was over 32 µM. The “Minimum Inhibitory Concentration” value (E. coli SQ110) was over 64 µM, the “Minimum Inhibitory Concentration” value (E. coli XDR CI 1057) was over 64 µM and the “Minimum Inhibitory Concentration” value (L. lactis MK66) was 4 µM. The “Minimum inhibitory concentration in the presence of NaCl” value (L. lactis MK66) was over 32 µM, the “Minimum Inhibitory Concentration” value (M. luteus Ac-2229) was over 32 µM and the “Minimum Inhibitory Concentration” value (M. phlei Ac-1221) was 32 µM. The “Minimum Inhibitory Concentration” value [1] was over 32 µM, the “Minimum Inhibitory Concentration” value (S. aureus 209P) was over 32 µM and the “Effect on outer membrane integrity (nitrocefin hydrolysis kinetics)” value [2] was “reduced”.

“TYYGTNGVSCNKKGCSVDWGKAISIIGNNSAANLATGGAAGWKS (disulfide 10-15) [AviA(T)]” was tested, and the “Minimum Inhibitory Concentration” value (L. monocytogenes EGD) was over 32 µM, the “Minimum Inhibitory Concentration” value (L. lactis MK43) was over 32 µM and the “Minimum Inhibitory Concentration” value (A. baumannii XDR CI 2675) was over 32 µM. The “Minimum Inhibitory Concentration” value (B. licheniformis B-511) was over 32 µM, the “Minimum Inhibitory Concentration” value (B. subtilis B-886) was over 32 µM and the “Minimum Inhibitory Concentration” value (E. coli ATCC 25922) was over 32 µM. For the same sequence, the “Minimum Inhibitory Concentration” value (E. coli ML-35p) was over 32 µM, the “Minimum Inhibitory Concentration” value (E. coli SQ110) was over 32 µM and the “Minimum Inhibitory Concentration” value (E. coli XDR CI 1057) was over 32 µM. For the same sequence, the “Minimum Inhibitory Concentration” value (L. lactis MK66) was over 32 µM, the “Minimum Inhibitory Concentration” value (M. luteus Ac-2229) was over 32 µM and the “Minimum Inhibitory Concentration” value (M. phlei Ac-1221) was over 32 µM. The “Minimum Inhibitory Concentration” value [1] was over 32 µM, the “Minimum Inhibitory Concentration” value (S. aureus 209P) was over 32 µM and the “Effect on outer membrane integrity (nitrocefin hydrolysis kinetics)” value [2] was “with the exception of AviA(T), were able to disrupt its integrity”. For the same sequence, the “Effect on cytoplasmic membrane integrity (ONPG hydrolysis kinetics)” value [3] was “melittin >> acidocin A ≈ pediocin box mutants > peptides without a disulfide bond > avicin A >> AviA(T)”.
